In patent US20260232652A1, “COMBINATIONS OF DGK (DIACYLGLYCEROL KINASE) INHIBITORS” (priority 2023, published 2026):
Values joined by “and” are separate entries in the source; they are usually repeats but may differ in a detail not shown here. Identical values can stand only once.

Legend:
human DGKalpha = target: T1, human DGKalpha (Homo sapiens, UniProt P23743); test: Human DGKalpha kinase activity inhibition assay (ADP-Glo); format: biochemical; conditions: read-out: IC50 hDGKa
T1 construct: made in house; host or cells: baculovirus-infected Sf9 insect cells
T1 sequence (P23743 whole entry): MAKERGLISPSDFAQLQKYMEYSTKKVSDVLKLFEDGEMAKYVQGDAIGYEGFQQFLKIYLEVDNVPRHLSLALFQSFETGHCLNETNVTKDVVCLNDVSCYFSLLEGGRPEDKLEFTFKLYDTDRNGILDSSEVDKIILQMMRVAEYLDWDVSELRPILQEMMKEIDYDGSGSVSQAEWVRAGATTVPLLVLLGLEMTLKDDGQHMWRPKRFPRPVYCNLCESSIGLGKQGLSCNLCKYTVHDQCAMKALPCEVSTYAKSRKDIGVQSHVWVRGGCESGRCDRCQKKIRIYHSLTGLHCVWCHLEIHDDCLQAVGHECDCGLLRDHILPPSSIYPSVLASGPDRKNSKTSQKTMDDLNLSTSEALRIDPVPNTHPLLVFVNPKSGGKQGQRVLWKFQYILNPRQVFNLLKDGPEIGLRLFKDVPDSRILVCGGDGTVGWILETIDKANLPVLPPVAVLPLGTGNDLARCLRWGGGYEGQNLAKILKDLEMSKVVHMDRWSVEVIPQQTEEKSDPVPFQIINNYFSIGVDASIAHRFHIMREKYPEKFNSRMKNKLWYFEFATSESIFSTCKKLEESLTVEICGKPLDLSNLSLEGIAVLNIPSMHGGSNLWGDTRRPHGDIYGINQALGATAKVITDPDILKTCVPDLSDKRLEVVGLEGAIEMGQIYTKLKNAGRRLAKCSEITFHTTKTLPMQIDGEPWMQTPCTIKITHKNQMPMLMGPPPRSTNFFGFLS
Procedure: Human DGKalpha inhibitory activity of compounds of the present invention was quantified employing the human DGKalpha kinase activity assay as described in the following paragraphs. In essence, the enzyme activity was measured by quantification of the adenosine-di-phosphate (ADP) generated as a co-product of the enzyme reaction via the “ADP-Glo™ Kinase Assay” kit from the company Promega. This detection system works as follows: In a first step the ATP not consumed in the kinase reaction is quantitatively converted to cAMP employing an adenylate cyclase (“ADP-Glo-reagent”), then the adenylate cyclase is stopped and the ADP generated in the kinase reaction converted to ATP, which subsequently generates in a luciferase-based reaction a glow-luminescence signal (“Kinase Detection Reagent”).
(§1) C-terminally FLAG-tagged, recombinant full-length human DGKalpha (expressed in baculovirus infected insect cells, purified using anti-Flag pulldown and size exclusion chromatography as described below, DGKa_hu_1) was used as enzyme. As substrate for the kinase 1,2-dioleoyl-sn-glycerol, reconstituted in octyl-β-D-glucopyranoside micelles, was used. […] Then 35 volumes of 50 mM MOPS buffer (pH 7.4) were added to yield a solution of 0.28 mM 1,2 dioleoyl-sn-glycerol and 200 mM octyl-β-D-glucopyranoside, which was aliquoted, flash-frozen in liquid nitrogen, and stored at −20° C. until use.
For the assay 50 nl of a 100-fold concentrated solution of the test compound in dimethyl sulfoxide (DMSO, Sigma) was pipetted into either a white 1536-well or a white low-volume 384-well microtiter plate (both Greiner Bio-One, Frickenhausen, Germany). […] The concentration of DGKα was adjusted depending of the activity of the enzyme lot and was chosen appropriate to have the assay in the linear range, a typical concentration is about 0.1 nM. The reaction was stopped by the addition of […] of “ADP-Glo-reagent” (1 to 1.5 diluted with water) and the resulting mixture was incubated at 22° C. for 1 h to convert the ATP not consumed in the kinase reaction completely to cAMP. […] The amount of emitted light was taken as a measure for the amount of ADP generated and thereby for the activity of the DGKα.

human DGKzeta = target: T2, human DGKzeta (Homo sapiens, UniProt Q13574); test: Human DGKzeta kinase activity inhibition assay (ADP-Glo); format: biochemical; conditions: read-out: IC50 hDGKz
T2 construct: C-terminally FLAG-tagged, recombinant full-length human DGKζ; made in house; host or cells: baculovirus-infected insect cells
T2 sequence (Q13574 whole entry): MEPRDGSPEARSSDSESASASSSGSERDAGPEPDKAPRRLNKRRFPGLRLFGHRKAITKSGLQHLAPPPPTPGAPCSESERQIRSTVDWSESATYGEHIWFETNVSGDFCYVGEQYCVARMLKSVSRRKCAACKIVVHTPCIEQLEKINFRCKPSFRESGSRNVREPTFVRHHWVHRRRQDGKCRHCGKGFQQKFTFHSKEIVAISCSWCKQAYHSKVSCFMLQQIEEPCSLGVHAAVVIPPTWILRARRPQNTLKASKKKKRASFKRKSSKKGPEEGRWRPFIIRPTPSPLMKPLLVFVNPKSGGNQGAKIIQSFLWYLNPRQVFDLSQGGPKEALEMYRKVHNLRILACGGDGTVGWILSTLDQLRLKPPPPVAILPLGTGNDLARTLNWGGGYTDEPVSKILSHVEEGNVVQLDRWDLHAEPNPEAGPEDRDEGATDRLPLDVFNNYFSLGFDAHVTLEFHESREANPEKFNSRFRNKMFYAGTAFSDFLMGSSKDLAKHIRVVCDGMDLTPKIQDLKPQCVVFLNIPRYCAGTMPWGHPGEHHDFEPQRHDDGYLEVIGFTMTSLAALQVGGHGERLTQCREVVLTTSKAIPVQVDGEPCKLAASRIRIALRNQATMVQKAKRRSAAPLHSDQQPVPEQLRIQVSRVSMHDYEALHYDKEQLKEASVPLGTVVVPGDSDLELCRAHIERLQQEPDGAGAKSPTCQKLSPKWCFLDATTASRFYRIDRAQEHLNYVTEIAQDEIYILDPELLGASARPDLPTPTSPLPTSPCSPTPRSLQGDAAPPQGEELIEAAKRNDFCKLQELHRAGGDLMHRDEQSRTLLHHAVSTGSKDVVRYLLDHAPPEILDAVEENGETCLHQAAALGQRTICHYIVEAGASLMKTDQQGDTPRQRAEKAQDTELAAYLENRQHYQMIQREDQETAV
Procedure: Human diacylglycerol kinase zeta (DGKζ) inhibitory activity of compounds of the present invention was quantified employing the human DGKζ kinase activity assay as described in the following paragraphs. In essence, the enzyme activity was measured by quantification of the adenosine-di-phosphate (ADP) generated as a co-product of the enzyme reaction via the “ADP-Glo™ Kinase Assay” kit from the company Promega. This detection system works as follows: In a first step the adenosine-tri-phosphate (ATP) not consumed in the kinase reaction is quantitatively converted to cyclic adenosine-mono-phosphate (cAMP) employing an adenylate cyclase (“ADP-Glo-reagent”), then the adenylate cyclase is stopped and the ADP generated in the kinase reaction is converted to ATP, which subsequently generates in a luciferase-based reaction a glow-luminescence signal (“Kinase Detection Reagent”).
as §1, with “DGKζ (inhouse expressed” for “DGKalpha (expressed”, “chromatography)” for “chromatography as described below, DGKa_hu_1)”, “As an alternative, commercially available enzyme by Carnabio can be used. As” for “As”, “kinase,” for “kinase”
For the assay 50 nl of a 100-fold concentrated solution of the test compound in dimethyl sulfoxide (DMSO, Sigma) was pipetted into either a white 1536-well or a white low-volume 384-well microtiter plate (both Greiner Bio-One, Frickenhausen, Germany). […] The concentration of DGKζ was adjusted depending of the activity of the enzyme lot and was chosen appropriate to have the assay in the linear range, a typical concentration is about 0.1 nM. The reaction was stopped by the addition of 2.5 μL of “ADP-Glo-reagent” (1 to 1.5 diluted with water) and the resulting mixture was incubated at 22° C. for 1 h to convert the ATP not consumed in the kinase reaction completely to cAMP. […] The amount of emitted light was taken as a measure for the amount of ADP generated and thereby for the activity of the DGKζ.

[1] = system: glioblastoma multiforme (GBM) cells; conditions: concurrent administration; cited from earlier work

With `CC(C(N)=O)N(c1ccc(F)cc1)c1nc(N)c(C(=O)c2ccc(C(F)(F)F)nc2)s1` (single isomer, unassigned) [Example 29.2, 2-(N-[4-amino-5-[6-(trifluoromethyl)pyridine-3-carbonyl]thiazol-2-yl]-4-fluoro-anilino)propanamide] the IC50 (human DGKalpha) was > 15 µM and the IC50 (human DGKzeta) was 0.046 µM.

In the case of `CC(C(N)=O)N(c1ccc(F)cc1)c1nc(N)c(C(=O)c2ccc(OC(F)(F)F)cc2)s1` (single isomer, unassigned) [Example 40.2, 2-(N-[4-amino-5-[4-(trifluoromethoxy)benzoyl]thiazol-2-yl]-4-fluoro-anilino)propanamide], the IC50 (human DGKalpha) is reported as > 12.2 µM and the IC50 (human DGKzeta) is reported as 0.0071 µM.

For `CC(C(N)=O)N(c1ccc(F)cc1)c1nc(N)c(C(=O)c2ccc(OC(F)F)cc2)s1` (single isomer, unassigned) [Example 44.2, 2-(N-[4-amino-5-[4-(difluoromethoxy)benzoyl]thiazol-2-yl]-4-fluoro-anilino)propanamide], the IC50 (human DGKalpha) was > 20 µM and the IC50 (human DGKzeta) was 0.0039 µM and 0.0067 µM.

For `COc1ccc(C(=O)c2sc(N(c3ccc(F)c(F)c3)C(C)C(N)=O)nc2N)cc1` (single isomer, unassigned) [Example 51.1, 2-(N-[4-amino-5-(4-methoxybenzoyl)thiazol-2-yl]-3,4-difluoro-anilino)propanamide], the IC50 (human DGKalpha) was > 13.3 µM and the IC50 (human DGKzeta) was 0.0082 µM and 0.0089 µM.

In the case of `Cn1c(=O)c(C#N)c(N2CCC(c3nc4ccc(F)cc4o3)CC2)c2ccccc21` [Example 4, 4-[4-(6-fluoro-1,3-benzoxazol-2-yl)piperidin-1-yl]-1-methyl-2-oxo-1,2-dihydroquinoline-3-carbonitrile], the IC50 (human DGKzeta) is reported as > 20 µM.

With `Cc1ccc2oc(C3CCN(c4c(C(N)=O)c(=O)n(C)c5ccccc45)CC3)nc2c1` [Example 107, 1-methyl-4-[4-(5-methyl-1,3-benzoxazol-2-yl)piperidin-1-yl]-2-oxo-1,2-dihydroquinoline-3-carboxamide] the IC50 (human DGKzeta) was > 20 µM.

For `COc1ccc(C2CCN(c3c(C(N)=O)c(=O)n(C)c4ccccc34)CC2)cc1` [Example 112, 4-[4-(4-methoxyphenyl)piperidin-1-yl]-1-methyl-2-oxo-1,2-dihydroquinoline-3-carboxamide], the IC50 (human DGKzeta) was > 20 µM.

In the case of `CNC(=O)c1c(N2CCC(c3nc4cc(C)ccc4o3)CC2)c2ccccc2n(C)c1=O` [Example 448, N,1-dimethyl-4-[4-(5-methyl-1,3-benzoxazol-2-yl)piperidin-1-yl]-2-oxo-1,2-dihydroquinoline-3-carboxamide], the IC50 (human DGKzeta) is reported as > 20 µM.

For `Cc1nc2sccn2c(=O)c1CCN1CCC(=C(c2ccccc2)c2ccc(F)cc2)CC1` [Example R59022], the “growth of intracranially injected GBM tumors” value [1] is given as “decreased growth of intracranially injected GBM tumors”.
